Results on four molecules are retold here after patent publication US20170081338A1, “SUBSTITUTED HETEROARYL COMPOUNDS AND METHODS OF USE” (Sunshine Lake Pharma Co., Ltd., priority 2015, published 2017).

Series [1] is described as follows: Compound stability in rat liver microsomes. The note with it: pH 7.4; for half-life at 5 μM: rat liver microsomes 0.5 mg protein/mL, compound 5 μM, NADPH, 37° C., read-out: Rat T1/2; for CLint scaled at 5 μM: rat liver microsomes, in vivo CLint extrapolated. Type of series: in vitro ADME. Summed up:
(§1)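 Parent compound depletion (5 μM) was tracked by LC/MS/MS over 60 min at 37° C using NADPH-fortified microsomes at 0.5 mg protein/mL. Dextromethorphan served as positive control and denatured microsomes as negative control.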

The target in series [2] is T1, JAK1 (h) (Homo sapiens, UniProt P23458).
T1 construct: purchased Millipore UK Ltd (contract assay service)
The experiment in a line: JAK1 (h) kinase assay. Type of series: biochemical. As for the experimental part:
Kinase assays can be performed by measurement of incorporation of γ-^33P ATP into immobilized myelin basic protein (MBP). High binding white 384 well plates (Greiner) are coated with MBP (Sigma #M-1891) by incubation of 60 μL/well of 20 μg/mL MBP in Tris-buffered saline (TBS; 50 mM Tris pH 8.0, 138 mM NaCl, 2.7 mM KCl) for 24 h at 4° C. Plates are washed 3× with 100 μL TBS. Kinase reactions are carried out in a total volume of 34 μL in kinase buffer (according to the need to make, for example, 5 mM Hepes pH 7.6, 15 mM NaCl, 0.01% bovine gamma globulin (Sigma #1-5506), 10 mM MgCl2, 1 mM DTT, 0.02% TritonX-100). Compound dilutions are performed in DMSO and added to assay wells to a final DMSO concentration of 1%. Each data point is measured in duplicate, and at least two duplicate assays are performed for each individual compound determination. Enzyme is added to final concentrations of 10 nM or 20 nM, for example. A mixture of unlabeled ATP and γ-^33P ATP is added to start the reaction (2×10^6 cpm of γ-^33P ATP per well (3000 Ci/mmole) and 10 μM unlabeled ATP, typically. The reactions are carried out for 1 h at room temperature with shaking. Plates are washed 7× with TBS, followed by the addition of 50 µL/well scintillation fluid (Wallac). Plates are read using a Wallac Trilux counter. This is only one format of such assays; various other formats are possible, as known to one skilled in the art.
The above assay procedure can be used to determine the IC50 for inhibition and/or the inhibition constant, Ki. The IC50 is defined as the concentration of compound required to reduce the enzyme activity by 50% under the condition of the assay. The IC50 value is estimated by preparing a 10 point curve using a 1/2 log dilution series (for example, a typical curve may be prepared using the following compound concentrations: 3 μM, 1 μM, 0.3 μM, 0.1 μM, 0.03 μM, 0.01 μM, 0.003 μM, 0.001 μM, 0.0003 μM and 0 μM).
JAK1 (h) is incubated with 20 mM Tris/HCl pH 7.5, 0.2 mM EDTA, 500 μM GEEPLYWSFPAKKK, 10 mM MgAcetate and [γ-^33P-ATP] (specific activity approx. 500 cpm/pmol, concentration as required). The reaction is initiated by the addition of the MgATP mix. After incubation for 40 minutes at room temperature, the reaction is stopped by the addition of 3% phosphoric acid solution. 10 μL of the reaction is then spotted onto a P30 filtermat and washed three times for 5 minutes in 75 mM phosphoric acid and once in methanol prior to drying and scintillation counting.
The kinase assays described herein were performed at Millipore UK Ltd, Dundee Technology Park, Dundee DD2 1SW, UK.

Series [3] concerns the target T2, Aurora-A (h) (Homo sapiens, UniProt O14965).
T2 construct: purchased Millipore UK Ltd (contract assay service)
T2 sequence (O14965 1-403): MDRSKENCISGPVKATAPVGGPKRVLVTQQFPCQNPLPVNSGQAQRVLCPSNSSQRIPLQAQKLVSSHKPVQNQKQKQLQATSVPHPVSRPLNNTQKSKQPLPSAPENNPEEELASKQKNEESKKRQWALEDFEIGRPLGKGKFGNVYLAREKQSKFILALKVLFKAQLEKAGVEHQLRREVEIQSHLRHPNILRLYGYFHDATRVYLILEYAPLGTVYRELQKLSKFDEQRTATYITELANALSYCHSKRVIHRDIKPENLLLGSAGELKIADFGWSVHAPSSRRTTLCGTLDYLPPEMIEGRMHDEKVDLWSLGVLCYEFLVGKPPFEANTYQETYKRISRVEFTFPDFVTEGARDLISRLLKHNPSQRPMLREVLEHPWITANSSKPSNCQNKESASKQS
In words: Aurora-A (h) kinase assay. Type of series: biochemical. In short, it runs like this: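 Human Aurora-A incubated with 200 μM Kemptide, 10 mM Mg acetate, [γ-33P]ATP in 8 mM MOPS pH 7.0 for 40 min at room temperature; stopped with phosphoric acid, spotted on P30 filtermat and scintillation counted. IC50 from 10-point ½-log dilution series.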

The nature of series [4]: Compound stability in human liver microsomes. In kind it is in vitro ADME. The note with it: pH 7.4; for half-life at 5 μM: human liver microsomes 0.5 mg protein/mL, compound 5 μM, NADPH, 37° C., read-out: Human T1/2; for CLint scaled at 5 μM: human liver microsomes, in vivo CLint extrapolated. In short, it runs like this: as §1

Usually CLint scaled stands for the capacity of the preparation to metabolise the compound, expressed as a volume cleared per time. The IC50 is the concentration at which inhibition is half-maximal.

T1 sequence (P23458 whole entry): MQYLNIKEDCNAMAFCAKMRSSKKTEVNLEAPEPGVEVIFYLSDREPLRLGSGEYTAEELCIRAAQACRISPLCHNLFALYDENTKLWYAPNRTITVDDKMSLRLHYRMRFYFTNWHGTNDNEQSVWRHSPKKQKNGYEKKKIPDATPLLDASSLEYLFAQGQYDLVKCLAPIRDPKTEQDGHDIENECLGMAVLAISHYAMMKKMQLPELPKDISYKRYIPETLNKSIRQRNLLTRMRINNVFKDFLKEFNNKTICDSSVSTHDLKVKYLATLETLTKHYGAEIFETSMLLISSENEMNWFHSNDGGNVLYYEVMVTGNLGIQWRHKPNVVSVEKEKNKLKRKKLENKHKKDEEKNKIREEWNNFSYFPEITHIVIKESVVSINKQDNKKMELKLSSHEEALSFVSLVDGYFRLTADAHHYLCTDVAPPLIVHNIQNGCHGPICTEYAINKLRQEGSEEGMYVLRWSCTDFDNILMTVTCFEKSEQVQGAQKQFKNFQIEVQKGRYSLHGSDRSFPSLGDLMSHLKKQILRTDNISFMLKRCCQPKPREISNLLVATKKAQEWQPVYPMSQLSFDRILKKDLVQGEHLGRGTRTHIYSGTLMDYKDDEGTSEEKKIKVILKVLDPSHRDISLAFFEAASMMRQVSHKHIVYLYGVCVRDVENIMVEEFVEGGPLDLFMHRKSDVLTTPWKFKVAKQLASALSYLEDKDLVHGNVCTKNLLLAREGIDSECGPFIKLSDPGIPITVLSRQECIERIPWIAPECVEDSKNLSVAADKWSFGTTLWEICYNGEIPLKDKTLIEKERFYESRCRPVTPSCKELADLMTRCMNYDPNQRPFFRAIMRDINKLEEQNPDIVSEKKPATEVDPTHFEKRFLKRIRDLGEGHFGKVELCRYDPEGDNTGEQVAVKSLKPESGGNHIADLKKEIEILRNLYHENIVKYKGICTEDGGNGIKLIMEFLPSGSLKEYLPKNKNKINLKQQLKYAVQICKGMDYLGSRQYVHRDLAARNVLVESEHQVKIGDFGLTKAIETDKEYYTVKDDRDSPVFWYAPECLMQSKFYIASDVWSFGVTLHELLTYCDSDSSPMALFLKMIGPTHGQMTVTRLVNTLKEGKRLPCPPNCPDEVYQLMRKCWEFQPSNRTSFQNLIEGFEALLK

`CC(C)CS(=O)(=O)N[C@H]1COC2C1OC[C@H]2Nc1nc(Nc2cnn(C)c2)ncc1Cl` (stereo partly drawn) [Ex. 2, N-((3S,6R)-6-((5-chloro-2-((1-methyl-1H-pyrazol-4-yl)amino)pyrimidin-4-yl)amino)hexahydrofuro[3,2-b]furan-3-yl)-2-methylpropane-1-sulfonamide]: the half-life at 5 μM in series [1] was 1.12 h; in series [4], 0.617 h. Also, the CLint scaled at 5 μM in series [1] was 36.9 mL/min/kg; in series [4], 47 mL/min/kg. Moreover, the results for the IC50 in series [2] and in series [3] were 43 nM and 20 nM, respectively.
On to `Cn1cc(Nc2ncc(Cl)c(N[C@@H]3COC4C3OC[C@@H]4NS(=O)(=O)CC3CC3)n2)cn1` (stereo partly drawn) [Ex. 25, N-((3S,6R)-6-((5-chloro-2-((1-methyl-1H-pyrazol-4-yl)amino)pyrimidin-4-yl)amino)hexahydrofuro[3,2-b]furan-3-yl)-1-cyclopropylmethanesulfonamide], for which the half-life at 5 μM in series [1] was 1.16 h; in series [4], 1.39 h. For the same molecule, the intrinsic metabolic clearance (CLint scaled) at 5 μM in series [1] is 35.6 mL/min/kg; in series [4], 20.8 mL/min/kg. Moreover, the concentration for half-maximal inhibition (IC50) in series [2] is 27 nM; in series [3] it was 5 nM.
Take `Cn1cc(Nc2ncc(Cl)c(N[C@@H]3COC4C3OC[C@@H]4NS(=O)(=O)CC(C)(C)C#N)n2)cn1` (stereo partly drawn) [Ex. 26, N-((3S,6R)-6-((5-chloro-2-((1-methyl-1H-pyrazol-4-yl)amino)pyrimidin-4-yl)amino)hexahydrofuro[3,2-b]furan-3-yl)-2-cyano-2-methylpropane-1-sulfonamide]: the figures for the half-life at 5 μM in series [1] and in series [4] were 0.682 h and 0.561 h, respectively. Further, the CLint scaled at 5 μM in series [1] is 60.7 mL/min/kg; in series [4], 51.7 mL/min/kg. Moreover, the 50% inhibitory concentration (IC50) in series [2] was 94 nM; in series [3] it was 6 nM.
For `Cn1cc(Nc2ncc(Cl)c(N[C@@H]3COC4C3OC[C@@H]4NS(=O)(=O)CC(F)(F)F)n2)cn1` (stereo partly drawn) [Ex. 27, N-((3S,6R)-6-((5-chloro-2-((1-methyl-1H-pyrazol-4-yl)amino)pyrimidin-4-yl)amino)hexahydrofuro[3,2-b]furan-3-yl)-2,2,2-trifluoroethanesulfonamide], the half-life at 5 μM stood at 0.942 h in series [1] and 3.16 h in series [4]. For the same molecule, the figures for the intrinsic clearance (CLint scaled) at 5 μM in series [1] and in series [4] were 44 mL/min/kg and 9.16 mL/min/kg, respectively. Also, the half-inhibitory concentration (IC50) in series [2] worked out at 7 nM; in series [3], 39 nM.
